Measured values taken from patent US8399676B2, “Piperidine derivatives” (Hoffman-La Roche Inc., priority 2009, dated 2013).
Where a name gives a salt, the structure may show the parent alone.

The molecules below were run against T1, human HSL (Homo sapiens, UniProt Q05469) (assay: Human Hormone-Sensitive Lipase (HSL) enzyme inhibition assay (colorimetric, DMPT substrate)). Conditions: read-out: HSL hum IC50.
T1 construct: generate a full length human HSL ORF with a 3′-His6 tag; His6 (C); made in house; host or cells: High 5 insect cells (baculovirus, pFast-BAC)
T1 sequence (Q05469 1-1076): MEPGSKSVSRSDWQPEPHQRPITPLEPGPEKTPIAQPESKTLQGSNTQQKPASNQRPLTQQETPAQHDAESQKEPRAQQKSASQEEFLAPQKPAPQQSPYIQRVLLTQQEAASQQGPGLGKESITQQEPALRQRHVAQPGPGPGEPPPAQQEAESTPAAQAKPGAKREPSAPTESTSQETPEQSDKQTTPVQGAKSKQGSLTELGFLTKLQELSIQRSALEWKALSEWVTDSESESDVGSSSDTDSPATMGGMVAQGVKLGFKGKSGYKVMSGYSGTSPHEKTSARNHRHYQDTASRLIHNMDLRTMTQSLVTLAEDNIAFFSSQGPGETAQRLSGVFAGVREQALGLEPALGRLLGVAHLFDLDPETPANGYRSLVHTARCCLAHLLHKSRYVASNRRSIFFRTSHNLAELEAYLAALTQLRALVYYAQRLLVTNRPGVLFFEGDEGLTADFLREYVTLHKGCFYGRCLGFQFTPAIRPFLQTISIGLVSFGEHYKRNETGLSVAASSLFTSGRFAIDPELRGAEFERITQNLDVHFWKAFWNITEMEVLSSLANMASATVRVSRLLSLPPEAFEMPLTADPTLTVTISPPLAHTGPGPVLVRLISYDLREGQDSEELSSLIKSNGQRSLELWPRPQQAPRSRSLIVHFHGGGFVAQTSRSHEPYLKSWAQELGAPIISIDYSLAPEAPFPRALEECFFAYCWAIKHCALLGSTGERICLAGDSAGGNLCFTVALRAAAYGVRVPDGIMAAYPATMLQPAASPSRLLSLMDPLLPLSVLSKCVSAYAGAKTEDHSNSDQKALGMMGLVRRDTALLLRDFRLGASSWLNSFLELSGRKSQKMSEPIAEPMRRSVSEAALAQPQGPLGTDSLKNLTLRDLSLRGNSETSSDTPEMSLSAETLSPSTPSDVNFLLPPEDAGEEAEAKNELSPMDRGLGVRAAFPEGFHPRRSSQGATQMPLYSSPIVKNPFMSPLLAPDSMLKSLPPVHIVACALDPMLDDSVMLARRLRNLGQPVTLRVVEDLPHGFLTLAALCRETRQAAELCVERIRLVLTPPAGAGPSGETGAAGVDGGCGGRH
Assay type: biochemical
Method: Production of Human Full Length Hormone Sensitive Lipase-His^6
1) Cloning: cDNA was prepared from commercial human brain polyA+ RNA and used as a template in overlapping PCR to generate a full length human HSL ORF with a 3′-His6 tag. This full length insert was cloned into the pFast-BAC vector and the DNA-sequence of several single clones was verified. DNA from a correct full length clone with the 3′His6 tag was used to transform the E. coli strain DH10BAC. Resulting bacmid DNA was used to generate a titered baculovirus stock for protein generation. The sequence of the encoded HSL conforms to Swissprot entry Q05469, with the additional C-terminal His6-tag.
2) Protein purification: Culture: 5.5 L, High 5 cells expressing human full length HSL-His^6, 48 hr., containing 25 μM E-64. Cell count: […], 90% viable.
Cells were thawed. On ice, cells were suspended in Base Buffer containing 10% glycerol, 25 mM Tris-Cl, 300 mM NaCl, 10 mM imidazole, 10 mM 2-mercaptoethanol, 2 μg pepstatin/ml, 2 μg leupeptin/ml, 2 μg antipain/ml, pH 8.0 at 4° C. in a final volume of 475 ml with 3.75×10^7 cells/ml. […] was done at 3×30 sec., Lubrol PX was added to 0.2% final concentration followed by stirring for 15 min. at 4° C. and centrifugation at 25 k×g, 60 min., 4° C. Soluble proteins were mixed with 60 ml of pre-washed and equilibrated Ni-NTA Agarose (Qiagen 30210) followed by tumbling end-over-end, 45 min., 4° C., centrifugation 1000 rpm 5 min and letting resin settle 5 min. Supernatant was removed, the resin washed in the centrifuge vessel using 5 volumes of Base Buffer containing 0.2% Lubrol PX. Centrifugation was done again, then the supernatant discarded. The resin was poured onto a 0.8 μm membrane in a disposable filter unit (Nalge 450-0080), and washed with 5 volumes of Base Buffer containing 0.2% Lubrol PX. It was then washed with 30 volumes of Base Buffer containing 60 mM imidazole pH 7.5 at 4° C. The protein was eluted with 5 volumes of 25 mM Tris-Cl, 300 mM NaCl, 200 mM imidazole, 10 mM 2-mercaptoethanol, pH 7.5 at 4° C. by tumbling resin with buffer end-over-end, 30 min., 4° C. The resin was captured on a 0.2 μm membrane disposable filter unit (Millipore SCGP U02 RE) and the elute collected in the reservoir. The elute was concentrated using a 30 k MWCO centrifugal filter device (Sartorius Vivascience Vivacell 100, VC1022), to 20 ml. It was then dialyzed overnight at 4° C., two times against 2 L of 10% glycerol, 25 mM Tris-Cl, 300 mM NaCl, 0.2 mM EDTA, 0.2 mM DTT, pH 7.5 at 4° C. The protein was filtered using a 0.22 μm disposable filter unit (Millipore SCGP00525). The protein concentration was calculated from absorbance at 280 nm, using 280=0.67 cm-1 mg-1. Yield was 235 mg, total. The protein was stored at −80° C. Human Hormone-Sensitive Lipase (HSL) enzyme inhibition assay:
HSL enzyme activity was measured by a colorimetric assay using 2,3-dimercapto-1-propanol tributyrate (Aldrich, St. Louis, Mo.) as a substrate. Typically, 1.5 mM 2,3-dimercapto-1-propanol tributyrate (DMPT) in 100 mM MOPS, pH 7.2, 0.2 mg/ml fatty acid-free BSA was prepared by sonication at 4° C. to homogenous suspension. Test compounds (2 mM stock in DMSO) were diluted 3 fold in series in DMSO. Compound solutions were diluted 24 fold in 1.5 mM DMPT containing solution and 18 ul per well was added to 384-well microplates (Corning Costar). Twelve microliters per well of human HSL (15 ug/ml) was added and the reaction mixture was incubated at 37° C. for 20 minutes. Six microliters of 12 mM dithio-bis-(2-nitrobenzoic acid) (DTNB) in DMSO plus 1.2% SDS and 0.6% Triton X-100 were added and the mixture was incubated at room temperature for 15 minutes. Product production was monitored by reading absorbance at 405 nm on an Envision Reader (PerkinElmer Life and Analytical Sciences, Shelton, Conn.).

How did the IC50 turn out when `CCc1ccc(NC(=O)C2(N)CCN(S(=O)(=O)c3ccccc3Cl)CC2)cc1` [Example 93, 4-Amino-1-(2-chloro-benzenesulfonyl)-piperidine-4-carboxylic acid (4-ethyl-phenyl)-amide] was run?
Its IC50 is 40 nM.

Which IC50 does the source give for `CCc1ccc(NC(=O)C2(N)CCN(S(=O)(=O)c3ccc(F)cc3Cl)CC2)cc1` [Example 146, 4-Amino-1-(2-chloro-4-fluoro-benzenesulfonyl)-piperidine-4-carboxylic acid (4-ethyl-phenyl)-amide] here?
The IC50 was 120 nM.

With `CC(C)c1ccc(NC(=O)C2(N)CCN(C(=O)Nc3ccc(C(C)(C)C)cc3)CC2)cc1` [Example 89, 4-Amino-piperidine-1,4-dicarboxylic acid 1-[(4-tert-butyl-phenyl)-amide]-4-[(4-isopropyl-phenyl)-amide]; hydrochloride] as the molecule, how does the IC50 read?
Its IC50 is 120 nM.

With `Cc1ccc(S(=O)(=O)N2CCC(O)(C(=O)Nc3ccc(C(C)C)cc3)CC2)cc1` [Example 5, 4-Hydroxy-1-(toluene-4-sulfonyl)-piperidine-4-carboxylic acid (4-isopropyl-phenyl)-amide] as the molecule, how does the IC50 read?
The IC50 was 210 nM.

With `CC(C)(C)c1ccc(NC(=O)C2(O)CCN(Cc3ccccc3F)CC2)cc1` [Example 45, 1-(2-Fluoro-benzyl)-4-hydroxy-piperidine-4-carboxylic acid (4-tert-butyl-phenyl)-amide] as the molecule, how does the IC50 read?
The IC50 was 80 nM.

Which IC50 does the source give for `O=C(Nc1ccc(OC(F)(F)F)cc1)C1(O)CCN(S(=O)(=O)c2ccccc2F)CC1` [Example 61, 1-(2-Fluoro-benzenesulfonyl)-4-hydroxy-piperidine-4-carboxylic acid (4-trifluoromethoxy-phenyl)-amide] here?
Its IC50 is 100 nM.

Which IC50 does the source give for `CC(C)c1ccc(NC(=O)C2(N)CCN(C(=O)Nc3ccc(Cl)cc3)CC2)cc1` [Example 108, 4-Amino-piperidine-1,4-dicarboxylic acid 1-[(4-chloro-phenyl)-amide] 4-[(4-isopropyl-phenyl)-amide]; hydrochloride] here?
Its IC50 is 100 nM.

`CC(C)c1ccc(NC(=O)C2(N)CCN(Cc3ccc(F)cc3)CC2)cc1` [Example 121, 4-Amino-1-(4-fluoro-benzyl)-piperidine-4-carboxylic acid (4-isopropyl-phenyl)-amide; hydrochloride] was tested. Which IC50 did it give?
The IC50 was 160 nM.

`CC(C)(C)c1ccc(NC(=O)C2(O)CCN(C(=O)c3ccc(F)cc3F)CC2)cc1` [Example 41, 1-(2,4-Difluoro-benzoyl)-4-hydroxy-piperidine-4-carboxylic acid (4-tert-butyl-phenyl)-amide] was tested. Which IC50 did it give?
The IC50 was 490 nM.

For `CN(C(=O)C1(O)CCN(S(=O)(=O)c2ccccc2C(F)(F)F)CC1)c1ccc(OC(F)(F)F)cc1` [Example 73, 4-Hydroxy-1-(2-trifluoromethyl-benzenesulfonyl)-piperidine-4-carboxylic acid methyl-(4-trifluoromethoxy-phenyl)-amide], which IC50 is on record?
Its IC50 is 100 nM.

`CCc1ccc(NC(=O)C2(N)CCN(S(=O)(=O)c3ccc(CC)cc3)CC2)cc1` [Example 140, 4-Amino-1-(4-ethyl-benzenesulfonyl)-piperidine-4-carboxylic acid (4-ethyl-phenyl)-amide] was tested. Which IC50 did it give?
Its IC50 is 110 nM.

`Cc1ccc(S(=O)(=O)N2CCC(N)(C(=O)Nc3ccc(OC(F)(F)F)cc3)CC2)cc1` [Example 80, 4-Amino-1-(toluene-4-sulfonyl)-piperidine-4-carboxylic acid (4-trifluoromethoxy-phenyl)-amide; hydrochloride] was tested. Which IC50 did it give?
Its IC50 is 50 nM.

`CCc1ccc(NC(=O)C2(N)CCN(S(=O)(=O)c3ccc(C(F)(F)F)cc3Cl)CC2)cc1` [Example 147, 4-Amino-1-(2-chloro-4-trifluoromethyl-benzenesulfonyl)-piperidine-4-carboxylic acid (4-ethyl-phenyl)-amide] was tested. Which IC50 did it give?
The IC50 was 430 nM.

Which IC50 does the source give for `NC1(C(=O)Nc2ccc3c(c2)CCC3)CCN(S(=O)(=O)c2ccccc2Cl)CC1` [Example 99, 4-Amino-1-(2-chloro-benzenesulfonyl)-piperidine-4-carboxylic acid indan-5-ylamide] here?
The IC50 was 60 nM.

With `CC(C)c1ccc(NC(=O)C2(N)CCN(Cc3ccccc3C(F)(F)F)CC2)cc1` [Example 114, 4-Amino-1-(2-trifluoromethyl-benzyl)-piperidine-4-carboxylic acid (4-isopropyl-phenyl)-amide; hydrochloride] as the molecule, how does the IC50 read?
Its IC50 is 210 nM.

How did the IC50 turn out when `CCc1ccc(NC(=O)C2(N)CCN(Cc3ccccc3C)CC2)cc1` [Example 152, 4-Amino-1-(2-methyl-benzyl)-piperidine-4-carboxylic acid (4-ethyl-phenyl)-amide] was run?
Its IC50 is 120 nM.

With `Cc1ccc(S(=O)(=O)N2CCC(N)(C(=O)Nc3ccc(C(C)(C)C)cc3)CC2)cc1` [Example 77, 4-Amino-1-(toluene-4-sulfonyl)-piperidine-4-carboxylic acid (4-tert-butyl-phenyl)-amide; hydrochloride] as the molecule, how does the IC50 read?
The IC50 was 50 nM.

Which IC50 does the source give for `CCc1ccc(NC(=O)C2(N)CCN(S(=O)(=O)c3ccccc3)CC2)cc1` [Example 133, 4-Amino-1-benzenesulfonyl-piperidine-4-carboxylic acid (4-ethyl-phenyl)-amide] here?
The IC50 was 90 nM.

Which IC50 does the source give for `CC(C)(C)c1ccc(NC(=O)C2(O)CCN(Cc3ccccc3C(F)(F)F)CC2)cc1` [Example 47, 4-Hydroxy-1-(2-trifluoromethyl-benzyl)-piperidine-4-carboxylic acid (4-tert-butyl-phenyl)-amide] here?
Its IC50 is 230 nM.

With `CC(C)(C)CC(=O)N1CCC(O)(C(=O)Nc2ccc(OC(F)(F)F)cc2)CC1` [Example 51, 1-(3,3-Dimethyl-butyryl)-4-hydroxy-piperidine-4-carboxylic acid (4-trifluoromethoxy-phenyl)-amide] as the molecule, how does the IC50 read?
Its IC50 is 810 nM.
